Patent US20260265259A1, “SUBSTITUTED 6-IMIDAZOPYRIDAZINE IL-17A MODULATORS AND USES THEREOF” (DICE ALPHA, INC., priority 2023, published 2026)
Read-outs that look alike come from different tables or passages of the source.

System: IL-17A/A
Assay: IL-17A/A HEK-Blue cell assay
Type: cell-based
Settings: IL-17A/A inhibition, HEK-Blue IL-17A reporter cell line, IL17A/A 5 ng/mL
Procedure, shortened: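 HEK 293 reporter cells expressing IL-17RA, IL-17RC and Act1, stimulated with 5 ng/mL IL17A/A or IL17A/F for 20 h alongside compound (10 μM to 27 pM, 0.1% DMSO). NFκB-driven SEAP in the medium read at A630 with Quanti-Blue; IC50 from 4-parameter fit.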

[1] = HEK-Blue, 20 h, SEAP read at A630, read-out: AA IC50
[2] = 20 hours, SEAP read at A630, read-out: AA IC50

CCn1nccc1C(=O)N[C@H](c1cn2nc(C[C@H]3C[C@@H](C(F)(F)F)CNC3=O)c(N3CC4CC(C3)O4)cc2n1)C1CCC(F)(F)CC1 [Compound 35]
IC50 [1]: < 0.1 µM

CCn1nccc1C(=O)N[C@H](c1cn2nc(C[C@H]3C[C@@H](C(F)(F)F)CNC3=O)c(C3CCOCC3)cc2n1)C1CCC(F)(F)CC1 [Compound 21, N—((S)-(4,4-difluorocyclohexyl)(6-(((3R,5R)-2-oxo-5-(trifluoromethyl)piperidin-3-yl)methyl)-7-(tetrahydro-2H-pyran-4-yl)imidazo[1,2-b]pyridazin-2-yl)methyl)-1-ethyl-1H-pyrazole-5-carboxamide]
IC50 [1]: < 0.1 µM

CC(C)n1nccc1C(=O)N[C@H](c1cn2nc(C[C@H]3C[C@@H](C(F)(F)F)CNC3=O)c(N3CCOCC3)cc2n1)[C@@H]1CCCC(F)(F)C1 [Compound 28]
IC50 [1]: < 0.1 µM

CCn1nccc1C(=O)N[C@H](c1cn2nc(C[C@H]3C[C@@H](C(F)(F)F)CNC3=O)c(C3CCCCO3)cc2n1)C1CCC(F)(F)CC1 (some centres unmarked) [Compound 84]
IC50 [1]: < 0.1 µM

CCn1nccc1C(=O)N[C@H](c1cn2nc(C[C@H]3C[C@@H](C(F)(F)F)CNC3=O)c(N3CCOC4(CC4)C3)cc2n1)C1CCC(F)(F)CC1 [Compound 81]
IC50 [1]: < 0.1 µM

CCn1nccc1C(=O)N[C@H](c1cn2nc(CC3C[C@@H](C(F)(F)F)CNC3=O)c(N3CCOCC3)cc2n1)C1CCC(F)(F)CC1 (some centres unmarked) [Compound 14]
IC50 [1]: < 0.1 µM

CCn1nccc1C(=O)N[C@H](c1cn2nc(C[C@H]3C[C@@H](C(F)(F)F)CNC3=O)c(N3CCN(C)CC3)cc2n1)C1CCC(F)(F)CC1 [Compound 20]
IC50 [1]: < 0.1 µM

CCn1nccc1C(=O)N[C@H](c1cn2nc(C[C@H]3C[C@@H](C(F)(F)F)CNC3=O)c(N3CC4(CCCOC4)C3)cc2n1)C1CCC(F)(F)CC1 [Compound 47]
IC50 [1]: < 0.1 µM

CCn1nccc1C(=O)N[C@H](c1cn2nc(C[C@H]3C[C@@H](C(F)(F)F)CNC3=O)c(N3CCC(OC)C3)cc2n1)C1CCC(F)(F)CC1 (some centres unmarked) [Compound 78]
IC50 [2]: < 0.1 µM

O=C(N[C@H](c1cn2nc(C[C@H]3C[C@@H](C(F)(F)F)CNC3=O)c(C3CCOCC3)cc2n1)C1CCC(F)(F)CC1)c1ccnn1C1CC1(F)F (some centres unmarked) [Compound 93]
IC50 [2]: < 0.1 µM

CCn1nccc1C(=O)N[C@H](c1cn2nc(C[C@H]3C[C@@H](C(F)(F)F)CNC3=O)c(N3CCO[C@H](C)C3)cc2n1)C1CCC(F)(F)CC1 [Compound 33, N—((S)-(4,4-difluorocyclohexyl)(7-((R)-2-methylmorpholino)-6-(((3R,5R)-2-oxo-5-(trifluoromethyl)piperidin-3-yl)methyl)imidazo[1,2-b]pyridazin-2-yl)methyl)-1-ethyl-1H-pyrazole-5-carboxamide]
IC50 [1]: < 0.1 µM

CCn1nccc1C(=O)N[C@H](c1cn2nc(C[C@H]3C[C@@H](C(F)(F)F)CNC3=O)c(CNCC(F)(F)F)cc2n1)C1CCC(F)(F)CC1 [Compound 115, N—((S)-(4,4-difluorocyclohexyl)(6-(((3R,5R)-2-oxo-5-(trifluoromethyl)piperidin-3-yl)methyl)-7-(((2,2,2-trifluoroethyl)amino)methyl)imidazo[1,2-b]pyridazin-2-yl)methyl)-1-ethyl-1H-pyrazole-5-carboxamide]
IC50 [1]: < 0.1 µM

O=C(N[C@H](c1cn2nc(C[C@H]3C[C@@H](C(F)(F)F)CNC3=O)c(N3CCOCC3)cc2n1)[C@H]1CCCC(F)(F)C1)c1nonc1C1CC1 [Compound 29]
IC50 [1]: < 0.1 µM

O=C(N[C@H](c1cn2nc(C[C@H]3C[C@@H](C(F)(F)F)CNC3=O)c(C3CCOC3)cc2n1)[C@@H]1CCCC(F)(F)C1)c1nonc1C1CC1 (some centres unmarked) [Compound 74]
IC50 [2]: < 0.1 µM

CCn1nccc1C(=O)N[C@H](c1cn2nc(C[C@H]3C[C@@H](C(F)(F)F)CNC3=O)c(C3CCOC3)cc2n1)[C@@H]1CCCC(F)(F)C1 (some centres unmarked) [Compound 68]
IC50 [1]: < 0.1 µM

CCn1nccc1C(=O)N[C@H](c1cn2nc(C[C@H]3C[C@@H](C(F)(F)F)CNC3=O)c(N3CCC3)cc2n1)C1CCC(F)(F)CC1 [Compound 23]
IC50 [1]: < 0.1 µM

CCn1nccc1C(=O)N[C@H](c1cn2nc(C[C@H]3C[C@@H](C(F)(F)F)CNC3=O)c(N3CCN(CCOC)CC3)cc2n1)C1CCC(F)(F)CC1 [Compound 99, N—((S)-(4,4-difluorocyclohexyl)(7-(4-(2-methoxyethyl)piperazin-1-yl)-6-(((3R,5R)-2-oxo-5-(trifluoromethyl)piperidin-3-yl)methyl)imidazo[1,2-b]pyridazin-2-yl)methyl)-1-ethyl-1H-pyrazole-5-carboxamide]
IC50 [1]: < 0.1 µM

CCn1nccc1C(=O)N[C@H](c1cn2nc(C[C@H]3C[C@@H](C(F)(F)F)CNC3=O)c(N3CCC4(COC4)C3)cc2n1)C1CCC(F)(F)CC1 [Compound 49]
IC50 [1]: < 0.1 µM

CCn1nccc1C(=O)N[C@H](c1cn2nc(C[C@H]3C[C@@H](C(F)(F)F)CNC3=O)c(CN(C)C3COC3)cc2n1)C1CCC(F)(F)CC1 [Compound 114, N—((S)-(4,4-difluorocyclohexyl)(7-((methyl(oxetan-3-yl)amino)methyl)-6-(((3R,5R)-2-oxo-5-(trifluoromethyl)piperidin-3-yl)methyl)imidazo[1,2-b]pyridazin-2-yl)methyl)-1-ethyl-1H-pyrazole-5-carboxamide]
IC50 [1]: < 0.1 µM

CCn1nccc1C(=O)N[C@H](c1cn2nc(C[C@H]3C[C@@H](C(F)(F)F)CNC3=O)c(C3CCOC(C)(C)C3)cc2n1)C1CCC(F)(F)CC1 (some centres unmarked) [Compound 88]
IC50 [2]: < 0.1 µM

O=C(N[C@H](c1cn2nc(C[C@@H]3C[C@@H](C(F)(F)F)CNC3=O)c(N3CCOCC3)cc2n1)C1CCC(F)(F)CC1)c1nonc1C1CC1 [Compound 17]
IC50 [1]: 0.1 to 1 µM

CCn1nccc1C(=O)N[C@H](c1cn2nc(C[C@H]3C[C@@H](C(F)(F)F)CNC3=O)c(C3CCCOC3)cc2n1)C1CCC(F)(F)CC1 (some centres unmarked) [Compound 7]
IC50 [1]: 0.1 to 1 µM

O=C(N[C@H](c1cn2nc(C[C@H]3C[C@@H](C(F)(F)F)CNC3=O)c(C3CCOCC3)cc2n1)[C@@H]1CCCC(F)(F)C1)c1nonc1C1CC1 [Compound 59]
IC50 [1]: < 0.1 µM

CCn1nccc1C(=O)N[C@H](c1cn2nc(C[C@H]3C[C@@H](C(F)(F)F)CNC3=O)c(C3COC3)cc2n1)C1CCC(F)(F)CC1 [Compound 5]
IC50 [1]: < 0.1 µM

O=C(N[C@H](c1cn2nc(C[C@H]3C[C@@H](C(F)(F)F)CNC3=O)c([C@H]3CCOC3)cc2n1)C1CCC(F)(F)CC1)c1nonc1C1CC1 [Compound 44]
IC50 [1]: < 0.1 µM

O=C(N[C@H](c1cn2nc(C[C@H]3C[C@@H](C(F)(F)F)CNC3=O)c(N3CCOCC3)cc2n1)C1CCC(F)(F)CC1)c1nonc1C1CC1 [Compound 16]
IC50 [1]: < 0.1 µM

CCn1nccc1C(=O)N[C@H](c1cn2nc(C[C@H]3C[C@@H](C(F)(F)F)CNC3=O)c(CNC)cc2n1)C1CCC(F)(F)CC1 [Compound 112, N—((S)-(4,4-difluorocyclohexyl)(7-((methylamino)methyl)-6-(((3R,5R)-2-oxo-5-(trifluoromethyl)piperidin-3-yl)methyl)imidazo[1,2-b]pyridazin-2-yl)methyl)-1-ethyl-1H-pyrazole-5-carboxamide]
IC50 [1]: < 0.1 µM

CCn1nccc1C(=O)N[C@H](c1cn2nc(C[C@H]3C[C@@H](C(F)(F)F)CNC3=O)c(N3CC(OC)C3)cc2n1)C1CCC(F)(F)CC1 [Compound 79]
IC50 [1]: < 0.1 µM

CCn1nccc1C(=O)N[C@H](c1cn2nc(C[C@H]3C[C@@H](C(F)(F)F)CNC3=O)c(C3CC3)cc2n1)C1CCC(F)(F)CC1 [Compound 36]
IC50 [1]: < 0.1 µM

CCn1nccc1C(=O)N[C@H](c1cn2nc(C[C@H]3C[C@@H](C(F)(F)F)CNC3=O)c(N3CC(F)(F)C3)cc2n1)C1CCC(F)(F)CC1 [Compound 41]
IC50 [1]: 0.1 to 1 µM

CCn1nccc1C(=O)N[C@H](c1cn2nc(C[C@@H]3C[C@@H](C)CNC3=O)c(C3CCOCC3)cc2n1)C1CCC(F)(F)CC1 [Compound 101, N—((1S)-(4,4-difluorocyclohexyl)(6-(((5R)-5-methyl-2-oxopiperidin-3-yl)methyl)-7-(tetrahydro-2H-pyran-4-yl)imidazo[1,2-b]pyridazin-2-yl)methyl)-1-ethyl-1H-pyrazole-5-carboxamide]
IC50 [1]: < 0.1 µM

CCn1nccc1C(=O)N[C@H](c1cn2nc(C[C@H]3C[C@@H](C(F)(F)F)CNC3=O)c(N3CCOC(C)C3)cc2n1)C1CCC(F)(F)CC1 (some centres unmarked) [Compound 34]
IC50 [2]: < 0.1 µM

CCn1nccc1C(=O)N[C@H](c1cn2nc(C[C@H]3C[C@@H](C(F)(F)F)CNC3=O)c(N3CCCC3)cc2n1)C1CCC(F)(F)CC1 [Compound 22]
IC50 [1]: < 0.1 µM

O=C(N[C@H](c1cn2nc(C[C@@H]3C[C@H](C(F)(F)F)CNC3=O)c(N3CCOCC3)cc2n1)C1CCC(F)(F)CC1)c1nonc1C1CC1 [Compound 39]
IC50 [1]: > 1 µM

CCn1nccc1C(=O)N[C@H](c1cn2nc(C[C@H]3C[C@@H](C(F)(F)F)CNC3=O)c(N3CCOCC3)cc2n1)[C@@H]1CCCC(F)(F)C1 [Compound 26]
IC50 [1]: < 0.1 µM

CCn1nccc1C(=O)N[C@H](c1cn2nc(C[C@H]3C[C@@H](C(F)(F)F)CNC3=O)c(N3CCOCC3)cc2n1)[C@H]1CCCC(F)(F)C1 [Compound 25]
IC50 [1]: < 0.1 µM

O=C(N[C@H](c1cn2nc(C[C@H]3C[C@@H](C(F)(F)F)CNC3=O)c(N3CCOCC3)cc2n1)[C@@H]1CCCC(F)(F)C1)c1nonc1C1CC1 [Compound 30]
IC50 [1]: < 0.1 µM

CCn1nccc1C(=O)N[C@H](c1cn2nc(C[C@H]3C[C@@H](C(F)(F)F)CNC3=O)c(C3CCS(=O)(=O)CC3)cc2n1)C1CCC(F)(F)CC1 [Compound 118, N—((S)-(4,4-difluorocyclohexyl)(7-(1,1-dioxidotetrahydro-2H-thiopyran-4-yl)-6-(((3R,5R)-2-oxo-5-(trifluoromethyl)piperidin-3-yl)methyl)imidazo[1,2-b]pyridazin-2-yl)methyl)-1-ethyl-1H-pyrazole-5-carboxamide]
IC50 [1]: < 0.1 µM
